Reference: ChEMBL document CHEMBL1201862, “PubChem BioAssay data set” (2004)
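Five concentrations, 48 hours, 96-well plates. GI50 marks 50% less growth.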 Active and inactive are the calls of the source. Cut-off read from the data, not from the text of the source: active = GI50 up to about 1.1 µM and inactive = higher.

Key:
Assay in all cases: NCI anticancer screen, dose series, 48 h
A549 = tested on: A549
CCRF-CEM = tested on: CCRF-CEM
COLO 205 = tested on: COLO 205
HCC 2998 = tested on: HCC 2998
HCT-116 = tested on: HCT-116
HL-60 = tested on: HL-60
HOP-92 = tested on: HOP-92
IGROV-1 = tested on: IGROV-1
K562 = tested on: K562
MDA-MB-435 = tested on: MDA-MB-435
OVCAR-3 = tested on: OVCAR-3
OVCAR-5 = tested on: OVCAR-5
OVCAR-8 = tested on: OVCAR-8
PC-3 = tested on: PC-3
RPMI-8226 = tested on: RPMI-8226
SF-539 = tested on: SF-539
SN12C = tested on: SN12C
SNB-19 = tested on: SNB-19
SR = tested on: SR
UACC-257 = tested on: UACC-257

Compound	GI50 (A549)	GI50 (CCRF-CEM)	GI50 (COLO 205)	GI50 (HCC 2998)	GI50 (HCT-116)	GI50 (HL-60)	GI50 (HOP-92)	GI50 (IGROV-1)	GI50 (K562)	GI50 (MDA-MB-435)	GI50 (OVCAR-3)	GI50 (OVCAR-5)	GI50 (OVCAR-8)	GI50 (PC-3)	GI50 (RPMI-8226)	GI50 (SF-539)	GI50 (SN12C)	GI50 (SNB-19)	GI50 (SR)	GI50 (UACC-257)
CCC1(O)CC(O)c2c(O)c3c(c(O)c2C1C(=O)OC)C(=O)c1cccc(O)c1C3=O (stereo not given)	3.64 µM (inactive)	1.53 µM (inactive)	2.21 µM (inactive)	4.43 µM (inactive)	2.89 µM (inactive)	0.794 µM (active)	9.31 µM (inactive)	1.39 µM (inactive)	1.96 µM (inactive)	5.45 µM (inactive)	2.05 µM (inactive)	4.86 µM (inactive)	1.63 µM (inactive)	2.86 µM (inactive)	2.21 µM (inactive)	3.85 µM (inactive)	2.92 µM (inactive)	2.45 µM (inactive)	1.12 µM (inactive)	3.65 µM (inactive)
Cc1c(S(=O)(=O)c2ccccc2)c(N)n(CCN(C)C)c1C	> 100 µM (inactive)	> 100 µM (inactive)	> 100 µM (inactive)	75 µM (inactive)	> 100 µM (inactive)	> 100 µM (inactive)	> 100 µM (inactive)	> 100 µM (inactive)	> 100 µM (inactive)	> 100 µM (inactive)	> 100 µM (inactive)	> 100 µM (inactive)	> 100 µM (inactive)	86.9 µM (inactive)	> 100 µM (inactive)	28.9 µM (inactive)	> 100 µM (inactive)	> 100 µM (inactive)	> 100 µM (inactive)	> 100 µM (inactive)
Clc1ccc(OCc2nnc3sc(-c4ccc(-c5ccc(Cl)cc5Cl)o4)nn23)c(Cl)c1	21.6 µM (inactive)	25.3 µM (inactive)	26.1 µM (inactive)	17.9 µM (inactive)	15.7 µM (inactive)	28.2 µM (inactive)	18.9 µM (inactive)	17.8 µM (inactive)	24.1 µM (inactive)	32.8 µM (inactive)	17.1 µM (inactive)	20 µM (inactive)	17.9 µM (inactive)	18.1 µM (inactive)	24.2 µM (inactive)	14.8 µM (inactive)	18.9 µM (inactive)	22.1 µM (inactive)	2.58 µM (inactive)	18.4 µM (inactive)
CS(=O)(=O)OCCCNCCCOS(C)(=O)=O	741 µM (inactive)	262 µM (inactive)	1730 µM (inactive)	1280 µM (inactive)	1440 µM (inactive)	201 µM (inactive)	957 µM (inactive)	2110 µM (inactive)	1580 µM (inactive)	2340 µM (inactive)	2630 µM (inactive)	2130 µM (inactive)	1650 µM (inactive)	1270 µM (inactive)	1310 µM (inactive)	1270 µM (inactive)	533 µM (inactive)	1270 µM (inactive)	148 µM (inactive)	1850 µM (inactive)
CC(NNC(=O)c1cc[n+]([BH2-]C#N)cc1)c1ccc(Cl)cc1Cl (stereo not given)	37.2 µM (inactive)	33.3 µM (inactive)	60.7 µM (inactive)	57.1 µM (inactive)	22.5 µM (inactive)	23.8 µM (inactive)	37.4 µM (inactive)	51.8 µM (inactive)	24.2 µM (inactive)	42.1 µM (inactive)	25 µM (inactive)	42.2 µM (inactive)	31.5 µM (inactive)	33.6 µM (inactive)	17.6 µM (inactive)	53.7 µM (inactive)	> 100 µM (inactive)	41.4 µM (inactive)	30.9 µM (inactive)	42.1 µM (inactive)
